Measured values reported in PMC4675670 (Science translational medicine, 2015).

How the values were obtained:
[1] = target: cytoplasmic prolyl-tRNA synthetase (PfcPRS, PF3D7_1213800) (Plasmodium falciparum, UniProt Q8I5R7, L482H); assay: biochemical assay on purified recombinant mutant enzyme
[2] = target: cytoplasmic prolyl-tRNA synthetase (PfcPRS, PF3D7_1213800) (Plasmodium falciparum, UniProt Q8I5R7); assay: biochemical assay on purified recombinant enzyme
[3] = target: human EPRS (bifunctional glutamyl-prolyl-tRNA synthetase) (Homo sapiens, UniProt P07814); assay: biochemical assay
Chain of human EPRS (bifunctional glutamyl-prolyl-tRNA synthetase) (P07814 whole entry): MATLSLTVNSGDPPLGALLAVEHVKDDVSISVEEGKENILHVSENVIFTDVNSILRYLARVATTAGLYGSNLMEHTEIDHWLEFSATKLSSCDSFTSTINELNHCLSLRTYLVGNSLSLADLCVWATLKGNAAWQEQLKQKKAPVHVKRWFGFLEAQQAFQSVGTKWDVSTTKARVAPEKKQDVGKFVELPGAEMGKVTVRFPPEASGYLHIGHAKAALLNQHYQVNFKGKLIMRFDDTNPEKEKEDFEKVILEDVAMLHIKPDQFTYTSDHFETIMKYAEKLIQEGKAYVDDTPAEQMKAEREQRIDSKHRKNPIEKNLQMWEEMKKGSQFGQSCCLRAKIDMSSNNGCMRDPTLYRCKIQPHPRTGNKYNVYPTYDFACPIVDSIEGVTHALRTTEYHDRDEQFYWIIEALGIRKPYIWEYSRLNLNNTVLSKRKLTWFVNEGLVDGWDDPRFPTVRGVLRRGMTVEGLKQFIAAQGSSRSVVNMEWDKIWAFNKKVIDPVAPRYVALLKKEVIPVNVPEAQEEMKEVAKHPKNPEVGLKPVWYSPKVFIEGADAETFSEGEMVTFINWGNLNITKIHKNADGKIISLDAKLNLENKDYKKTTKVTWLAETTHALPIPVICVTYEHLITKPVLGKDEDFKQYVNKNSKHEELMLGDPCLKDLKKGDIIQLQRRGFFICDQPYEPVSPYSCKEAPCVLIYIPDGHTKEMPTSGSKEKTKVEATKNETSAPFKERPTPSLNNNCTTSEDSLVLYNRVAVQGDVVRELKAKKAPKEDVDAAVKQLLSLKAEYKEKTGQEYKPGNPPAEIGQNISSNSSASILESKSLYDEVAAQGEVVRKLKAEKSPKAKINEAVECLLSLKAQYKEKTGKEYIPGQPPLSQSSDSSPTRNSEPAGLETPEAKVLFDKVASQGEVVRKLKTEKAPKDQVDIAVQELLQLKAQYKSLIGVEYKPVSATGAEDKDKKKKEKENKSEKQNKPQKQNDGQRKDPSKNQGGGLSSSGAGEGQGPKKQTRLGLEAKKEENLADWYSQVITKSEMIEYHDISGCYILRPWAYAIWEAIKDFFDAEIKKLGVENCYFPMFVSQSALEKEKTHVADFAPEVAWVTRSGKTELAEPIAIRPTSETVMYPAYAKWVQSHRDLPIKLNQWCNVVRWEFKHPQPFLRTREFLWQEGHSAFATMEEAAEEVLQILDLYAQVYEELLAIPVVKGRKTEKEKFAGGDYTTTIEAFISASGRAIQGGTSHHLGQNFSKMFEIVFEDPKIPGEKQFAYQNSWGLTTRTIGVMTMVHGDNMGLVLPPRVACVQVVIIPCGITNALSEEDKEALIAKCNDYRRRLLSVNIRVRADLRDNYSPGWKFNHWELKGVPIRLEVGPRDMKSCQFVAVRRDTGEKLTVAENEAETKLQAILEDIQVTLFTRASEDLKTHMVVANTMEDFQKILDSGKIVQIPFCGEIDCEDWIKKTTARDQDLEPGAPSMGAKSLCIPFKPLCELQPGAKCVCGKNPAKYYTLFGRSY

O=c1c2cc(Cl)c(Br)cc2ncn1C[C@@H](O)C[C@H]1NCCC[C@@H]1O [halofuginol]
Ki [1]: 1120 nM
Ki [2]: 71.1 nM
Ki [3]: 65.7 nM
